Source: US20240067639A1, “SMALL MOLECULES THAT TARGET THE RNA THAT CAUSES ALS” (EXPANSION THERAPEUTICS, INC., priority 2020, published 2024)
Read-outs that look alike come from different tables or passages of the source.

Key:
[1] = biological target: biotinylated r(G4C2)8 RNA and hnRNP H1-His6; assay: TR-FRET hnRNP H binding assay
Description: TR-FRET hnRNP H Binding Assay. The TR-FRET assays were performed as previously described (Disney et al., 2012) except the final concentrations of biotinylated r(G4C2)8 (SEQ ID NO: 2) RNA and hnRNP H1-His6 were 80 nM and 75 nM, respectively. The RNA was folded by heating to 95° C. for 5 min in 1× Folding Buffer followed by slowly cooling to room temperature. The buffer was adjusted to 1×TR-FRET Assay Buffer followed by addition of compound. The mixture was incubated for 15 min at room temperature and then hnRNP H1-His6 was added. After an additional 15 min incubation, streptavidin-XL665 (HTRF, Cisbio Bioassays) and anti-His6-Tb (HTRF, Cisbio Bioassays) were added to a final concentration of 40 nM and 0.44 ng/μL, respectively. After incubating for 1 h, TR-FRET was measured as previously described. The IC50s were either calculated by fitting the equation (1) in Graphpad Prism.

[2] = system: RAN translation of (G4C2)66-No ATG-GFP in HEK293T cells; assay: Cell-based assay of RAN translation inhibition (GFP/mCherry reporter); settings: Homo sapiens, HEK-293T, 24 h, read-out: RANT IC25
[3] = Table D, HEK293T, 24 h treatment
[4] = Table F, HEK293T, 24 h treatment

With `Cc1c2ccncc2cc2c1sc1ccc(OCCN(C)C)cc12` [Compound 224, N,N-dimethyl-2-((5-methylbenzo[4,5]thieno[2,3-g]isoquinolin-9-yl)oxy)ethanamine] the Ki ([1]; Table F) was 8.6 µM and the IC25 [2] was > 5 µM.
With `Cc1c2ccncc2cc2c3cc(OCCCN(C)C)ccc3n(C)c12` [Compound 6, 3-((5,6-dimethyl-6H-pyrido[4,3-b]carbazol-9-yl)oxy)-N,N-dimethylpropan-1-amine] the Ki ([1]; Table D) was 32 µM and the IC25 [2, 3] was > 5 µM.
`Cc1c2ccncc2cc2c3cc(OCC(N)=O)ccc3n(C)c12` [Compound 12, 2-((5,6-dimethyl-6H-pyrido[4,3-b]carbazol-9-yl)oxy)acetamide] showed a Ki ([1]; Table D) of 18 µM and an IC25 [2, 3] of 0.3 µM.
With `Cc1c2ccncc2cc2c3cc(OCCN4CCC(C)(C)CC4)ccc3n(C)c12` [Compound 223, 9-(2-(4,4-dimethylpiperidin-1-yl)ethoxy)-5,6-dimethyl-6H-pyrido[4,3-b]carbazole] the Ki ([1]; Table F) was 3.1 µM and the IC25 [2, 4] was 3.8 µM.
In the case of `Cc1c2ccncc2cc2c3ccc(OCCN(C)C)cc3n(C)c12` [Example 51, 2-((5,6-dimethyl-6H-pyrido[4,3-b]carbazol-8-yl)oxy)-N,N-dimethylethanamine], the Ki ([1]; Table D) is reported as 6 µM and the IC25 [2, 3] is reported as > 5 µM.
Compound `Cc1c2ccncc2cc2c3cc(N4CCNCC4)ccc3n(C)c12` [Compound 244, 5,6-dimethyl-9-(piperazin-1-yl)-6H-pyrido[4,3-b]carbazole] has a Ki ([1]; Table F) of 0.4 µM and an IC25 [2, 4] of 2.4 µM.
In the case of `Cc1c2ccncc2cc2c1[nH]c1ccc(OCCN3CCOCC3)cc12` [Compound 250, 4-(2-((5-methyl-6H-pyrido[4,3-b]carbazol-9-yl)oxy)ethyl)morpholine], the Ki ([1]; Table F) is reported as 11 µM and the IC25 [2, 4] is reported as > 5 µM.
`Cn1c2ccc(OCC(=N)N)cc2c2cc3cnccc3cc21` [Compound 245, 2-((6-methyl-6H-pyrido[4,3-b]carbazol-9-yl)oxy)acetimidamide] gave a Ki ([1]; Table F) of 0.8 µM and an IC25 [2, 4] of 1.7 µM.
`Cc1c2ccncc2cc2c3cc(OCCN)ccc3n(C)c12` [Example 32, 2-((5,6-dimethyl-6H-pyrido[4,3-b]carbazol-9-yl)oxy)ethanamine] showed a Ki ([1]; Table D) of 9.5 µM and an IC25 [2, 3] of 1.4 µM.
`Cc1c2ccncc2cc2c3c(OCCN4CCOCC4)cccc3n(C)c12` [Example 54, 4-(2-((5,6-dimethyl-6H-pyrido[4,3-b]carbazol-10-yl)oxy)ethyl)morpholine] gave a Ki ([1]; Table D) of 13 µM and an IC25 [2, 3] of 1.3 µM.
In the case of `Cc1c2ccncc2cc2c3cc(C(=O)N4CCN(C)CC4)ccc3n(C)c12` [Example 76, (5,6-dimethyl-6H-pyrido[4,3-b]carbazol-9-yl)(4-methylpiperazin-1-yl)methanone], the Ki ([1]; Table D) is reported as 4.2 µM and the IC25 [2, 3] is reported as 2.2 µM.
`Cc1c2ccncc2cc2c3cc(OCCN4CCCCC4)ccc3n(C)c12` [Example 31, 5,6-dimethyl-9-(2-(piperidin-1-yl)ethoxy)-6H-pyrido[4,3-b]carbazole] was tested, and the Ki ([1]; Table D) was 4.5 µM and the IC25 [2] was 2.8 µM.
In the case of `COc1ccc2c(c1)c1cc3c(C(=O)N[C@@H](C)CN(C)C)nccc3c(C)c1n2C` [Example 27, (S)—N-(1-(dimethylamino)propan-2-yl)-9-methoxy-5,6-dimethyl-6H-pyrido[4,3-b]carbazole-1-carboxamide], the Ki ([1]; Table D) is reported as 9.1 µM and the IC25 [2, 3] is reported as 1 µM.
In the case of `COc1ccc2c(c1)c1cc3c(C4CCCO4)nccc3c(C)c1n2C` (stereo not shown) [Example 80b, 9-methoxy-5,6-dimethyl-1-(tetrahydrofuran-2-yl)-6H-pyrido[4,3-b]carbazole], the Ki ([1]; Table D) is reported as 9.2 µM and the IC25 [2, 3] is reported as 3.1 µM.
`Cc1c2ccncc2cc2c3cc(OCCN4CCS(=O)(=O)CC4)ccc3n(C)c12` [Compound 217, 4-(2-((5,6-dimethyl-6H-pyrido[4,3-b]carbazol-9-yl)oxy)ethyl)thiomorpholine 1,1-dioxide] was tested, and the Ki ([1]; Table F) was 8.5 µM and the IC25 [2, 4] was > 5 µM.
With `Cc1c2ccncc2cc2c3cc(OCCN4CCOCC4)ccc3n(C(C)C)c12` [Compound 235, 4-(2-((6-isopropyl-5-methyl-6H-pyrido[4,3-b]carbazol-9-yl)oxy)ethyl)morpholine] the Ki ([1]; Table F) was > 200 µM and the IC25 [2] was > 5 µM.
With `Cc1c2ccncc2cc2c3cc(OC[C@H]4CCCN4C)ccc3n(C)c12` [Example 36, (R)-5,6-dimethyl-9-((1-methylpyrrolidin-2-yl)methoxy)-6H-pyrido[4,3-b]carbazole] the Ki ([1]; Table D) was 3.9 µM and the IC25 [2, 3] was > 5 µM.
For `Cc1c2ccncc2cc2c3cc(OCC(=O)NCCN4CCOCC4)ccc3n(C)c12` [Example 42, 2-((5,6-dimethyl-6H-pyrido[4,3-b]carbazol-9-yl)oxy)-N-(2-morpholinoethyl)acetamide], the Ki ([1]; Table D) was 9.2 µM and the IC25 [2, 3] was > 5 µM.
Work on `COc1ccc2c(c1)c1cc3ccncc3c(C)c1n2C` [Example 50, 7-methoxy-10,11-dimethyl-10H-pyrido[3,4-b]carbazole] yielded a Ki ([1]; Table D) of 33 µM and an IC25 [2, 3] of 0.27 µM.
`CCN(CC)CCCOc1ccc2c(c1)c1cc3cnccc3c(C)c1n2C` [Compound 10, 3-((5,6-dimethyl-6H-pyrido[4,3-b]carbazol-9-yl)oxy)-N,N-diethylpropan-1-amine] gave a Ki ([1]; Table D) of 7.3 µM and an IC25 [2, 3] of 3.2 µM.
For `COCCNC(=O)c1ccc2c(c1)c1cc3cnccc3c(C)c1n2C` [Compound 215, N-(2-methoxyethyl)-5,6-dimethyl-6H-pyrido[4,3-b]carbazole-9-carboxamide], the Ki ([1]; Table F) was 12 µM and the IC25 [2, 4] was > 5 µM.
`CC(C)n1c2ccc(OCC3=NCCN3)cc2c2cc3cnccc3cc21` [Compound 256, 9-(4,5-dihydro-1H-imidazol-2-ylmethoxy)-6-isopropyl-pyrido[4,3-b]carbazole] was tested, and the Ki ([1]; Table F) was 42 µM and the IC25 [2, 4] was > 5 µM.
`Cc1c2ccncc2cc2c1[nH]c1ccc(OCC3=NCCN3)cc12` [Compound 257, 9-((4,5-dihydro-1H-imidazol-2-yl)methoxy)-5-methyl-6H-pyrido[4,3-b]carbazole] showed a Ki ([1]; Table F) of 5.7 µM and an IC25 [2, 4] of 2.7 µM.
In the case of `Cc1c2ccncc2cc2c3cccc(OCCN(C)C)c3n(C)c12` [Compound 220, 2-((5,6-dimethyl-6H-pyrido[4,3-b]carbazol-7-yl)oxy)-N,N-dimethylethanamine], the Ki ([1]; Table F) is reported as 2.3 µM and the IC25 [2] is reported as > 5 µM.
In the case of `Cc1c2ccncc2cc2c3cc(OCCN4CCCCCC4)ccc3n(C)c12` [Compound 219, 9-(2-(azepan-1-yl)ethoxy)-5,6-dimethyl-6H-pyrido[4,3-b]carbazole], the Ki ([1]; Table F) is reported as 1.2 µM and the IC25 [2] is reported as > 5 µM.
`Cc1c2ccncc2cc2c3cc(OC[C@H](C)N(C)C)ccc3n(C)c12` [Compound 230, (S)-1-((5,6-dimethyl-6H-pyrido[4,3-b]carbazol-9-yl)oxy)-N,N-dimethylpropan-2-amine] gave a Ki ([1]; Table F) of 1.2 µM and an IC25 [2, 4] of 4.3 µM.
In the case of `CCn1c2ccc(OCCN3CCOCC3)cc2c2cc3cnccc3c(C)c21` [Example 62, 4-[2-(6-ethyl-5-methyl-pyrido[4,3-b]carbazol-9-yl)oxyethyl]morpholine], the Ki ([1]; Table D) is reported as > 200 µM and the IC25 [2, 3] is reported as > 5 µM.
`Cc1c2ccncc2cc2c3c(OCC4=NCCN4)cccc3n(C)c12` [Example 56, 10-((4,5-dihydro-1H-imidazol-2-yl)methoxy)-5,6-dimethyl-6H-pyrido[4,3-b]carbazole] showed a Ki ([1]; Table D) of 1 µM and an IC25 [2, 3] of 0.67 µM.
With `COc1ccc2c3cc4c(C(=O)N[C@H](C)CN(C)C)nccc4c(C)c3n(C)c2c1` [Example 82, (R)—N-(1-(dimethylamino)propan-2-yl)-8-methoxy-5,6-dimethyl-6H-pyrido[4,3-b]carbazole-1-carboxamide] the Ki ([1]; Table D) was 20 µM and the IC25 [2, 3] was > 5 µM.
